The values that follow come from ChEMBL document CHEMBL1134979, “A glucose-selective fluorescence sensor based on boronic acid-diol recognition” (Bioorg Med Chem Lett, 2002).

A short description of test [1]: Binding constant for complexation with Fructose by Fluorescence experiment.
The nature of test [2]: Selectivity for Glucose to Fructose was determined by Fluorescence experiment.
Test [3] in a line: Binding constant for complexation with glucose by Fluorescence experiment.
Test [4] in a line: Binding constant for complexation with Galactose by Fluorescence experiment.
Test [5] in a line: Fluorescence intensity change with respect to glucose binding (100 mM) was determined by Fluorescence experiment; Increased by 4.3 fold.
A short description of test [6]: Fluorescence intensity change with respect to glucose binding (100 mM) was determined by Fluorescence experiment; Decreased by 0.4 fold.
Test [7] is described as follows: Binding constant for complexation with Fructose by Fluorescence experiment; Fluorescence was too small for an accurate Ka determination.
A short description of test [8]: Fluorescence intensity change with respect to glucose binding (100 mM) was determined by Fluorescence experiment; Decreased by 0.5 fold.
The nature of test [9]: Selectivity for Glucose to Fructose was determined by Fluorescence experiment; Fluorescence intensity change upon binding with fructose was too small for an accurate Ka determination.
Test [10] is described as follows: Fluorescence intensity change with respect to glucose binding (100 mM) was determined by Fluorescence experiment; Increased by 5.5 fold.
Test [11] is described as follows: Fluorescence intensity change with respect to glucose binding (100 mM) was determined by Fluorescence experiment; Increased by 7.0 fold.
Test [12] in a line: Fluorescence intensity change with respect to glucose binding (100 mM) was determined by Fluorescence experiment; Increased by 0.9 fold.
The nature of test [13]: Fluorescence intensity change with respect to glucose binding (100 mM) was determined by Fluorescence experiment; PBA is not fluorescent.

Molecules are shown by their SMILES.

Take `CN(Cc1ccccc1B(O)O)Cc1c2ccccc2c(CN(C)C(=O)CCCCC(=O)N(C)Cc2c3ccccc3c(CN(C)Cc3ccccc3B(O)O)c3ccccc23)c2ccccc12`: the results for the Ka in test [1], in test [3] and in test [4] were 77 M⁻¹, 638 M⁻¹ and 105 M⁻¹, respectively. For the same compound, the Selectivity in [2] was 8. Further, the Activity result in test [5] is “Increased by 4.3 fold”.
`O=C1c2cccc3cc([N+](=O)[O-])cc(c23)C(=O)N1c1cccc(B(O)O)c1`: the Activity result in test [6] is “Decreased by 0.4 fold”. The results for the Ka in test [1] and in [3] were 476 M⁻¹ and 38 M⁻¹, respectively. The compound also yielded a Selectivity in [2] of 0.08.
As for `CC1=C2C[C@H]3Cc4c(CO)oc(-c5ccc(B(O)O)cc5)c4C3=C2Oc2cc(B(O)O)ccc21`, the values for the Ka result in test [7], in test [3] and in [4] were “Fluorescence was too small for an accurate Ka determination”, 4000 M⁻¹ and 100 M⁻¹, respectively. Further, the Activity entry in [8] is given as “Decreased by 0.5 fold”. Moreover, the Selectivity entry in [9] was “Fluorescence intensity change upon binding with fructose was too small for an accurate Ka determination”.
Regarding `CN(Cc1ccccc1B(O)O)Cc1c2ccccc2c(CN(C)C(=O)c2ccccc2C(=O)N(C)Cc2c3ccccc3c(CN(C)Cc3ccccc3B(O)O)c3ccccc23)c2ccccc12`, the Activity result in [10] is reported as “Increased by 5.5 fold”. For the same compound, the figures for the Ka in test [1], in test [3] and in test [4] were 283 M⁻¹, 178 M⁻¹ and 33 M⁻¹, respectively. The compound further registered a Selectivity in [2] of 0.6.
Take `CN(Cc1ccccc1B(O)O)Cc1c2ccccc2c(CN(C)C(=O)Cc2ccccc2CC(=O)N(C)Cc2c3ccccc3c(CN(C)Cc3ccccc3B(O)O)c3ccccc23)c2ccccc12`: the Activity entry in test [11] is “Increased by 7.0 fold”. Further, the Ka in test [1] worked out at 34 M⁻¹; in test [3], 1470 M⁻¹; in [4], 30 M⁻¹. This compound yielded a Selectivity in [2] of 43.
On to `OB(O)c1ccc[n+](Cc2c3ccccc3c(C[n+]3cccc(B(O)O)c3)c3ccccc23)c1`, for which the Activity entry in test [12] was “Increased by 0.9 fold”. In [3], this compound gave a Ka of 2510 M⁻¹.
With `CN(Cc1ccccc1B(O)O)Cc1c2ccccc2c(CN(C)Cc2ccccc2B(O)O)c2ccccc12`, the Ka in test [1] came out at 316 M⁻¹; in [3], 3980 M⁻¹; in test [4], 158 M⁻¹. In addition, in [2], the Selectivity stood at 13.
`OB(O)c1ccccc1`: the Ka in test [1] is 162 M⁻¹; in [3], 5 M⁻¹; in test [4], 15 M⁻¹. Further, the Selectivity in test [2] was determined as 0.03. For the same compound, the Activity entry in test [13] is “PBA is not fluorescent”.
